Assay results as given in US20040186077A1, “Novel heteroaryl phosphonates as cardioprotective agents” (Medicure International Inc., priority 2003, published 2004).

Test system: Male Wistar rats
Experiment: Ischemia reperfusion: LAD occlusion and reperfusion, infarct size as percentage of AAR
Assay type: in vivo
Conditions: 32 mg/kg i.v. bolus 5 min before ischemia; regional myocardial ischemia 25 min, reperfusion 2 h; P=0.047 unpaired t-test; vehicle infarct size 56±3% of the AAR
Experimental: Male Wistar rats (200-300 g, Tuck, Rayleigh, Essex, U.K.) were anesthetised with thiopentone sodium (Intraval®, 120 mg/kg i.p.; Rhone-Merrieux, Essex, U.K.). The rats were tracheotomised, intubated and ventilated with a Harvard ventilator (70 strokes/min, tidal volume: 8-10 mL/kg, inspiratory oxygen concentration: 30%). Body temperature was maintained at 38±1° C. The right carotid artery was cannulated and connected to a pressure transducer (MLT 1050, AD Instruments Ltd, Hastings, UK) to monitor mean arterial blood pressure (MAP) and heart rate (HR), which were continuously recorded on a data acquisition system such as Powerlab® Version 4.0.4, AD Instruments, Hastings, UK. The right jugular vein was cannulated for drug administration and the administration of Evans Blue dye (at the end of the experiment). A lateral thoracotomy was performed and the heart was suspended in a temporary pericardial cradle. A snare occluder was placed around the left anterior descending coronary artery (LAD). After completion of the surgical procedure the animals were allowed to stabilise for 30 min before LAD ligation. Five minutes prior to the onset of myocardial ischemia, a bolus injection (i.v.) of either vehicle or phosphonate was administered. The coronary artery was occluded at time 0 by tightening of the occluder. […]

In the case of `Cc1nc(-c2ccccc2)c(C(F)P(=O)(O)O)c(CO)c1O` (stereo not shown) [Compound 38, [Fluoro-(5-hydroxy-4-hydroxymethyl-6-methyl-2-phenyl-pyridin-3-yl)-methyl]-phosphonic acid], the myocardial infarct size is reported as “reduced myocardial infarct size”.
